The experiment has as its target T1, ATM (Homo sapiens, UniProt Q13315).
T1 construct: detecting phosphorylation of Chk2 in a human non-small cell lung cancer cell line NCI-H460 (ATCC company); host or cells: NCI-H460 human non-small cell lung cancer cells
Put plainly: ATM inhibition test (phosphorylation of Chk2 generated by ionizing radiation, AlphaScreen SureFire). Type of experiment: cell-based. The following applies: phosphorylated Chk2 in NCI-H460 cells, ionizing radiation 8Gy, 1 hour after test compound treatment; read-out: ATM inhibitory activity. The essentials: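 Human NCI-H460 lung cancer cells were treated with compound for 1 h, then irradiated at 8Gy and incubated 1 h at 37° C. Phospho-Chk2 was quantified by AlphaScreen SureFire; inhibition % was normalised between irradiated untreated and non-irradiated untreated wells.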
T1 sequence (Q13315 whole entry): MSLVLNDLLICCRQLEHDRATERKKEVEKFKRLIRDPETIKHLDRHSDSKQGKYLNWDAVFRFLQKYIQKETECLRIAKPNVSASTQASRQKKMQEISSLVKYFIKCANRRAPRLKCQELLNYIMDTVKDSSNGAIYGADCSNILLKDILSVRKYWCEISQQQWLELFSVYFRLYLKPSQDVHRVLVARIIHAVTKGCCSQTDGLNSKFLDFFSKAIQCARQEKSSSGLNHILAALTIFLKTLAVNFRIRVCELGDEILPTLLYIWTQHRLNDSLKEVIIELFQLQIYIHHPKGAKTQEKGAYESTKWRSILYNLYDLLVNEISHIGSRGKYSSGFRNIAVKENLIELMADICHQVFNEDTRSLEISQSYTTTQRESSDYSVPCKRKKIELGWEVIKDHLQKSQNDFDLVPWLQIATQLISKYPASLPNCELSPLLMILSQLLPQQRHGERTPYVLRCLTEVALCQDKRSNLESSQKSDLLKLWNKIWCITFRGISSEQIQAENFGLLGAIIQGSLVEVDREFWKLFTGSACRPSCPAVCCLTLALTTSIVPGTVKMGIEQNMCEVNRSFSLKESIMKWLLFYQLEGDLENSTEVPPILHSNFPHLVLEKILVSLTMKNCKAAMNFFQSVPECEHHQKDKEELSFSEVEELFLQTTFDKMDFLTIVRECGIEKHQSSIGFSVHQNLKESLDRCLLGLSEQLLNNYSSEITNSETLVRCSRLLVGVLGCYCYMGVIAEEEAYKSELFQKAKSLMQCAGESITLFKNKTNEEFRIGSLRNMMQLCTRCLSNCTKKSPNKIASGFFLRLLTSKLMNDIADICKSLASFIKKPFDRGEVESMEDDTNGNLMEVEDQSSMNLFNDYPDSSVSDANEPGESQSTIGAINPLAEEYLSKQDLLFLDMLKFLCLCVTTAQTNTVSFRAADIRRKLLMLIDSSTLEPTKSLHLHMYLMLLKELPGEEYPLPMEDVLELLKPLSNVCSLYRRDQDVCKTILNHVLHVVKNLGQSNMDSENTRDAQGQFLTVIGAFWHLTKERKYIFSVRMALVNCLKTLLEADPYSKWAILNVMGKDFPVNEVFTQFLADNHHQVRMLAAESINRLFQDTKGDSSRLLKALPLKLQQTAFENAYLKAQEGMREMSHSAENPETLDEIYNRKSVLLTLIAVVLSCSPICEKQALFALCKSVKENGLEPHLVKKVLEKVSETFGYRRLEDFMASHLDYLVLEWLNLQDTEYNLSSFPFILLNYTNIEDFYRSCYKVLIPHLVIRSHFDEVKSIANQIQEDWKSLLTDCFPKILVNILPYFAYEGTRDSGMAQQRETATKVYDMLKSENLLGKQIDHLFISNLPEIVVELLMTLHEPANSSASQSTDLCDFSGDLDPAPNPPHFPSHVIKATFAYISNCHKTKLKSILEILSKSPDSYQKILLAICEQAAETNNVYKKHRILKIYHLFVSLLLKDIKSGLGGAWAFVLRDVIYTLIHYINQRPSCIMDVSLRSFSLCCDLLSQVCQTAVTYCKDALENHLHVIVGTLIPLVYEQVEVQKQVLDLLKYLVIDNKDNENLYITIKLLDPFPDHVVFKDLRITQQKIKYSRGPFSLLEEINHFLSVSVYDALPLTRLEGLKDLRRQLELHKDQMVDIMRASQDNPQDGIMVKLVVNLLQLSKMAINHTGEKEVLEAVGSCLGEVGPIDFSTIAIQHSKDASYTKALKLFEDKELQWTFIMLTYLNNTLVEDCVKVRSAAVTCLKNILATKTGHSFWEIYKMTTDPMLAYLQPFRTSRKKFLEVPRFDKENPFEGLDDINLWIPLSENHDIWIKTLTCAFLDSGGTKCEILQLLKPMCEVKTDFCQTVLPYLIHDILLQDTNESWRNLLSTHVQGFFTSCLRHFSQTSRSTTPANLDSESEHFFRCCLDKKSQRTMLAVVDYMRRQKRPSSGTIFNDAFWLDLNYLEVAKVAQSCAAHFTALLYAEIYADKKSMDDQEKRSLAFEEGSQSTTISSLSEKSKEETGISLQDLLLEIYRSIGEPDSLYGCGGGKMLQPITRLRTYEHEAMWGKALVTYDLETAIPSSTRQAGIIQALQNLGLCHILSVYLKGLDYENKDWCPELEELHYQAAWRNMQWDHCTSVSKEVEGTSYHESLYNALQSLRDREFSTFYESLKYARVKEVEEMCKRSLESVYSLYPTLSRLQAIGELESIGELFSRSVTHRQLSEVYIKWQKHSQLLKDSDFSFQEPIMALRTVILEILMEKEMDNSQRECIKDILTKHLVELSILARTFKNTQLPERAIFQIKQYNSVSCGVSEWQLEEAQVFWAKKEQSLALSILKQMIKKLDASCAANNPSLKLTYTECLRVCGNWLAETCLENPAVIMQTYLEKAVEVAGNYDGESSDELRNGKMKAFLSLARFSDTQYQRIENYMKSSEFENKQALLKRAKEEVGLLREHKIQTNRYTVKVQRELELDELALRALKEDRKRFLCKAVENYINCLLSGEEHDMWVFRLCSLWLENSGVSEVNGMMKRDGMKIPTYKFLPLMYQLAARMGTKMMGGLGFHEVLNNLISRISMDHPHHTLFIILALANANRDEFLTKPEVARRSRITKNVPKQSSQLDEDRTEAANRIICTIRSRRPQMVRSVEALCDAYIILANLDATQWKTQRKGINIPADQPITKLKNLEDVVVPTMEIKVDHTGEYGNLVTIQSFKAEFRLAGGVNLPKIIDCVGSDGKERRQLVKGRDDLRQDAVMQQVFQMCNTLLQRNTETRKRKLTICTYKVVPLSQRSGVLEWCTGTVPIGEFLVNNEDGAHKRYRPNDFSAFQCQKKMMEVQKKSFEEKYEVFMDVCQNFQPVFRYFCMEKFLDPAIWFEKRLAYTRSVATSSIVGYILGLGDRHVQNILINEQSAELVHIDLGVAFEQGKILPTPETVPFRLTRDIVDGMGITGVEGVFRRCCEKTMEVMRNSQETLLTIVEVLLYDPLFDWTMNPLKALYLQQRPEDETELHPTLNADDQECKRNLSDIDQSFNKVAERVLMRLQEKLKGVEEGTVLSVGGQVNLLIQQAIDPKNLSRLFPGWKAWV
For the compound `COc1cncc(CNc2ccc3c(c2)Cc2cccc(-c4cc(N5CCOCC5)cc(=O)[nH]4)c2O3)c1` [Example 2-3-8, 6-(7-(((5-Methoxypyridin-3-yl)methyl)amino)-9H-xanthen-4-yl)-4-morpholino pyridin-2(1H)-one], the IC50 is 100 to 500 nM.
With `O=c1cc(N2CCOCC2)cc(-c2cccc3c2Oc2ccc(NC4CCN(Cc5ccc(OC6CCOCC6)nc5)CC4)cc2C3)[nH]1` [Example 2-28-21, 4-Morpholino-6-(7-((1-((6-((tetrahydro-2H-pyran-4-yl)oxy)pyridin-3-yl)methyl)piperidin-4-yl)amino)-9H-xanthen-4-yl)pyridin-2(1H)-one], the IC50 lay within 100 to 500 nM.
Turning to `O=c1cc(N2CCOCC2)cc(-c2cccc3c2Oc2ccc(NCc4ccc(N5CCOCC5)nc4)cc2C3)[nH]1` [Example 2-2-6, 4-Morpholino-6-(7-(((6-morpholinopyridin-3-yl)methyl)amino)-9H-xanthen-4-yl)pyridin-2(1H)-one], the IC50 is 100 to 500 nM.
Turning to `O=c1cc(N2CCOCC2)cc(-c2cccc3c2Oc2ccc(NC4CCN(Cc5cccs5)CC4)cc2C3)[nH]1` [Example 2-28-25, 4-Morpholino-6-(7-((1-(thiophen-2-ylmethyl)piperidin-4-yl)amino)-9H-xanthen-4-yl)pyridin-2(1H)-one], the IC50 fell in the range of 100 to 500 nM.
As to `CC(CN1CCOCC1C)Nc1ccc2c(c1)Sc1cccc(-c3cc(N4CCOCC4)cc(=O)[nH]3)c1S2` (stereo not shown) [Example 1-13-10, 6-(7-((1-(3-Methylmorpholino)propan-2-yl)amino)thianthren-1-yl)-4-morpholino pyridin-2(1H)-one], the IC50 was in the range of 100 to 500 nM.
The value for `CC(=O)Nc1cccc(CNc2ccc3c(c2)Cc2cccc(-c4cc(N5CCOCC5)cc(=O)[nH]4)c2O3)n1` [Example 2-2-73, N-(6-(((5-(4-Morpholino-6-oxo-1,6-dihydropyridin-2-yl)-9H-xanthen-2-yl)amino)methyl)pyridin-2-yl) acetamide] was 500 to 2000 nM.
The value for `CCOC(=O)C(C)Nc1ccc2c(c1)Cc1cccc(-c3cc(N4CCOCC4)cc(=O)[nH]3)c1O2` (stereo not shown) [Example 2-14-72, Ethyl 2-((5-(4-morpholino-6-oxo-1,6-dihydropyridin-2-yl)-9H-xanthen-2-yl)amino) propanoate] was 100 to 500 nM.
Take `Nc1ccc2c(c1)Cc1ccc(F)c(-c3cc(N4CCOCC4)cc(=O)[nH]3)c1O2` [Example 2-45, 6-(7-Amino-3-fluoro-9H-xanthen-4-yl)-4-morpholinopyridin-2(1H)-one]: the IC50 was 100 to 500 nM.
With `O=c1cc(N2CCOCC2)cc(-c2cccc3c2Sc2ccc(NCC4CCN(Cc5cccnc5)CC4)cc2S3)[nH]1` [Example 1-11, 4-morpholino-6-(7-(((1-(pyridin-3-ylmethyl)piperidin-4-yl)methyl)amino)thianthren-1-yl)pyridin-2(1H)-one] the figure was 100 to 500 nM; with `COc1cccc(CNc2ccc3c(c2)Cc2cccc(-c4cc(N5CCOCC5)cc(=O)[nH]4)c2O3)n1` [Example 2-2-32, 6-(7-(((6-Methoxypyridin-2-yl)methyl)amino)-9H-xanthen-4-yl)-4-morpholino pyridin-2(1H)-one], 100 to 500 nM; with `O=c1cc(N2CCOCC2)cc(-c2cccc3c2Sc2ccc(NC4CCCN(C5CCOC5)C4)cc2S3)[nH]1` (stereo not shown) [Example 1-24-8, 4-Morpholino-6-(7-((1-(tetrahydrofuran-3-yl)piperidin-3-yl)amino)thianthren-1-yl)pyridin-2 (1H)-one], 100 to 500 nM.
The value for `O=C1CCCN1c1cncc(CNc2ccc3c(c2)Cc2cccc(-c4cc(N5CCOCC5)cc(=O)[nH]4)c2O3)c1` [Example 2-2-67, 4-Morpholino-6-(7-(((5-(2-oxopyrrolidin-1-yl)pyridin-3-yl)methyl)amino)-9H-xanthen-4-yl)pyridin-2(1H)-one] was 100 to 500 nM; that for `CC(C)(C)OC(=O)N1CCC(Nc2ccc3c(c2)Cc2cccc(-c4cc(N5CCOCC5)cc(=O)[nH]4)c2O3)C(F)C1` (stereo not shown) [Example 2-14-1, tert-Butyl 3-fluoro-4-((5-(4-morpholino-6-oxo-1,6-dihydropyridin-2-yl)-9H-xanthen-2-yl)amino) piperidine-1-carboxylate] was 100 to 500 nM; that for `O=c1cc(N2CCOCC2)cc(-c2cccc3c2Sc2ccc(NC4CCCCC4Cl)cc2S3)[nH]1` (stereo not shown) [Example 1-12-72, 6-(7-((2-Chlorocyclohexyl)amino)thianthren-1-yl)-4-morpholino pyridin-2(1H)-one] was 500 to 2000 nM.
With `CN(C)c1nccc(CNc2ccc3c(c2)Sc2cccc(-c4cc(N5CCOCC5)cc(=O)[nH]4)c2S3)n1` [Example 1-12-40, 6-(7-(((2-(Dimethylamino)pyrimidin-4-yl)methyl)amino)thianthren-1-yl)-4-morpholino pyridin-2(1H)-one] the figure was 100 to 500 nM.
For the compound `CN(c1ccc2c(c1)Sc1cccc(-c3cc(N4CCOCC4)cc(=O)[nH]3)c1S2)C1CCCNC1` (stereo not shown) [Example 1-30, 6-(7-(methyl(piperidin-3-yl)amino)thianthren-1-yl)-4-morpholinopyridin-2(1H)-one], the IC50 was 500 to 2000 nM.
As for `Cc1ccc(C(Nc2ccc3c(c2)Sc2cccc(-c4cc(N5CCOCC5)cc(=O)[nH]4)c2S3)[C@H]2CN(C)CCO2)nc1` (single isomer, unassigned) [Example 1-56-12], the IC50 was less than 100 nM.
The value for `COCCN(C)CCNc1ccc2c(c1)Sc1cccc(-c3cc(N4CCOCC4)cc(=O)[nH]3)c1S2` [Example 1-10-12, 6-(7-((2-((2-Methoxyethyl) (methyl)amino)ethyl)amino)thianthren-1-y1)-4-morpholino pyridin-2(1H)-one] was 100 to 500 nM.
For `CCC(Nc1ccc2c(c1)Cc1cccc(-c3cc(N4CCOCC4)cc(=O)[nH]3)c1O2)c1cncc(OC)c1` (single isomer, unassigned) [Example 2-37, 6-(7-((1-(5-methoxypyridin-3-yl)propyl)amino)-9H-xanthen-4-yl)-4-morpholinopyridin-2(1H)-one], the IC50 lay in the range of 100 to 500 nM.
The value for `Cc1ccc(C(CCN(C)CCN(C)C)Nc2ccc3c(c2)Sc2cccc(-c4cc(N5CCOCC5)cc(=O)[nH]4)c2S3)nc1` (single isomer, unassigned) [Example 10-5-1, 6-(7-((3-((2-(Dimethylamino)ethyl)(methyl)amino)-1-(5-methylpyridin-2-yl)propyl)amino)thianthren-1-yl)-4-morpholinopyridin-2(1H)-one] was less than 100 nM; that for `O=c1cc(N2CCOCC2)cc(-c2cccc3c2Oc2ccc(NC4CCN(Cc5cc(C6CC6)ccn5)CC4)cc2C3)[nH]1` [Example 2-28-30, 6-(7-((1-((4-Cyclopropylpyridin-2-yl)methyl)piperidin-4-yl)amino)-9H-xanthen-4-yl)-4-morpholino pyridin-2(1H)-one] was 100 to 500 nM; that for `O=c1cc(N2CCOCC2)cc(-c2cccc3c2Sc2ccc(NCCN4CCC(O)CC4)cc2S3)[nH]1` [Example 1-10-8, 6-(7-((2-(4-Hydroxypiperidin-1-yl)ethyl)amino)thianthren-1-yl)-4-morpholino pyridin-2(1H)-one] was 500 to 2000 nM.
For `COc1ccncc1CN1CCC(Nc2ccc3c(c2)Sc2cccc(-c4cc(N5CCOCC5)cc(=O)[nH]4)c2S3)CC1` [Example 1-45, 6-(7-((1-((4-Methoxypyridin-3-yl)methyl)piperidin-4-yl)amino)thianthren-1-yl)-4-morpholinopyridin-2(1H)-one], the IC50 fell in the range of 100 to 500 nM.
The value for `O=c1cc(N2CCOCC2)cc(-c2cccc3c2Sc2ccc(NC4CCCN(Cc5ccccn5)C4)cc2S3)[nH]1` (stereo not shown) [Example 1-24-3, 4-Morpholino-6-(7-((1-(pyridin-2-ylmethyl)piperidin-3-yl)amino)thianthren-1-yl)pyridin-2 (1H)-one] was 100 to 500 nM.
Turning to `Cc1ccncc1CNc1ccc2c(c1)Sc1cccc(-c3cc(N4CCOCC4)cc(=O)[nH]3)c1O2` [Example 4-4-19, 6-(8-(((4-Methylpyridin-3-yl)methyl)amino)phenoxathiin-4-yl)-4-morpholino pyridin-2(1H)-one], the IC50 lay in the range of 100 to 500 nM.
Turning to `O=c1cc(N2CCOCC2)cc(-c2cccc3c2Oc2ccc(NCc4ccnc(N5CCOCC5)n4)cc2C3)[nH]1` [Example 2-14-69, 4-Morpholino-6-(7-(((2-morpholinopyrimidin-4-yl)methyl)amino)-9H-xanthen-4-yl)pyridin-2(1H)-one], the IC50 is 100 to 500 nM.
As to `O=c1cc(N2CCOCC2)cc(-c2cccc3c2Sc2ccc(NC4CCN(CC(F)(F)F)CC4)cc2S3)[nH]1` [Example 1-25, 4-morpholino-6-(7-((1-(2,2,2-trifluoroethyl)piperidin-4-yl)amino)thianthren-1-yl)pyridin-2(1H)-one], the IC50 fell in the range of 100 to 500 nM.
With `CC(=O)Nc1cncc(CNc2ccc3c(c2)Cc2cccc(-c4cc(N5CCOCC5)cc(=O)[nH]4)c2O3)c1` [Example 2-2-13, N-(5-(((5-(4-Morpholino-6-oxo-1,6-dihydropyridin-2-yl)-9H-xanthen-2-yl)amino)methyl)pyridin-3-yl)acetamide] the figure was 500 to 2000 nM.
The value for `O=c1cc(N2CCOCC2)cc(-c2cccc3c2Sc2ccc(NC4CCN(Cc5ccccn5)CC4)cc2S3)[nH]1` [Example 1-24-19, 4-Morpholino-6-(7-((1-(pyridin-2-ylmethyl)piperidin-4-yl)amino)thianthren-1-yl)pyridin-2 (1H)-one] was 100 to 500 nM; that for `CC(Nc1ccc2c(c1)Sc1cccc(-c3cc(N4CCOCC4)cc(=O)[nH]3)c1S2)[C@H](C)N1CCOCC1` (stereo partly shown) [Example 1-21-5, 6-(7-(((3 S)-3-morpholinobutan-2-yl)amino)thianthren-1-yl)-4-morpholinopyridin-2(1H)-one] was 100 to 500 nM.
As for `Cc1ccnc(CN2CCC(Nc3ccc4c(c3)Cc3cccc(-c5cc(N6CCOCC6)cc(=O)[nH]5)c3O4)CC2)c1` [Example 2-28-19, 6-(7-((1-((4-Methylpyridin-2-yl)methyl)piperidin-4-yl)amino)-9H-xanthen-4-yl)-4-morpholino pyridin-2(1H)-one], the IC50 was 100 to 500 nM.

For the origin of these results see patent publication US9586951B2 (FUJIFILM Corporation, priority 2013, dated 2017).
